Measured values as given in patent publication US20050090522A1 (priority 2001, published 2005).
Like-named read-outs stand apart in the source and are kept apart here.

Tested on: HIV-1
Assay: HIV-1 single-round infectious luciferase reporter virus (pseudotype) assay in HeLa CD4 CCR5 cells
Assay type: cell-based
Description: • Virus production—Human embryonic Kidney cell line, 293, propagated in Dulbecco's Modified Eagle Medium (Life Technologies, Gaithersburg, Md.) containing 10% fetal Bovine serum (FBS, Sigma, St. Louis, Mo.). • Virus infection—Human epithelial cell line, HeLa, expressing the HIV-1 receptors CD4 and CCR^5 was propagated in Dulbecco's Modified Eagle Medium (Life Technologies, Gaithersburg, Md.) containing 10% fetal Bovine serum (FBS, Sigma, St. Louis, Mo.) and supplemented with 0.2 mg/mL Geneticin (Life Technologies, Gaithersburg, Md.) and 0.4 mg/mL Zeocin (Invitrogen, Carlsbad, Calif.). […] Transfections were performed using lipofectAMINE PLUS reagent as described by the manufacturer (Life Technologies, Gaithersburg, Md.). Experiment • 1. Compound was added to HeLa CD4 CCR5 cells plated in 96 well plates at a cell density of 5×10^4 cells per well in 100 μl Dulbecco's Modified Eagle Medium containing 10% fetal Bovine serum at a concentration of […]. • 2. 100 μl of single-round infectious reporter virus in Dulbecco's Modified Eagle Medium was then added to the plated cells and compound at an approximate multiplicity of infection (MOI) of 0.01, resulting in a final volume of 200 μl per well and a final compound concentration of <10 μM. • 3. Samples were harvested 72 h after infection. • 4. Viral infection was monitored by measuring luciferase expression from viral DNA in the infected cells using a luciferase reporter gene assay kit (Roche Molecular Biochemicals, Indianapolis, Ind.). Infected cell supernatants were removed and 50 μl of Dulbecco's Modified Eagle Medium (without phenol red) and 50 μl of luciferase assay reagent reconstituted as described by the manufacturer (Roche Molecular Biochemicals, Indianapolis, Ind.) was added per well. Luciferase activity was then quantified by measuring luminescence using a Wallac microbeta scintillation counter. • 5. […] An EC50 provides a method for comparing the antiviral potency of the compounds of this invention. The effective concentration for fifty percent inhibition (EC50) was calculated with the Microsoft Excel Xlfit curve fitting software. For each compound, curves were generated from percent inhibition calculated at 10 different concentrations by using a four paramenter logistic model (model 205). Table 1 is the key for the data in Tables 2-4. Cytoxicity assays were conducted with the same HeLa using methodology well known in the art.
In Table 5, X2, X4 etc. indicates the point of attachment. […] The data at 10 μM was calculated in the following manner:
For compounds tested at concentrations less than 10 μM, the percent inhibition at 10 μM was determined by extrapolation using the XLfit curve fitting feature of the Microsoft Excel spreadsheet software. Curves were obtained from 10 data points (% inhibition determined at 10 concentrations of compound) by using a four parameter logistic model (XLfit model 205: y=A+((B−A)/(I+((C/x)^D))), where, A=minimum y, B=maximum y, C=logEC50, D=slope factor, and x and y are known data values. Extrapolations were performed with the A and B parameters unlocked. […]

[1] = Human immunodeficiency virus 1, HeLa-CD4/CCR5, read-out: EC50 Group from TABLE 1, HeLa CD4 CCR5 cells, single-round infectious luciferase reporter virus
[2] = Human immunodeficiency virus 1, HeLa-CD4/CCR5, read-out: EC50 Group from Table 1, Table 2-1, HeLa CD4 CCR5 cells, single-round luciferase reporter virus

Compound	EC50 [1] [nM]	other results
COc1cc(-c2ncc(OC)c3c(C(=O)C(=O)N4CCN(C(=O)c5ccccc5)CC4)c[nH]c23)nc(OC)n1 [Example 68, 1-benzoyl-4-[(4-methoxy-7-(2,6-dimethoxy-pyrimidin-4-yl)-6-azaindol-3-yl)-oxoacetyl]piperazine]	< 1000	–
O=C(C(=O)N1CCN(C(=O)c2ccccc2)CC1)c1c[nH]c2c(-c3ccncn3)ncc(F)c12 [Example 125]	< 1000	–
C[C@H]1CN(C(=O)c2ccccn2)CCN1C(=O)C(=O)c1c[nH]c2c(-c3cnc(N(C)C)cn3)nccc12 [Example 106, (S)-1-picolinoyl-3-methyl-4-[(7-(2-dimethylamino-pyrazin-5-yl)-6-azaindol-3-yl)-oxoacetyl]piperazine]	< 1000	–
COc1cnc(-c2cnccn2)c2[nH]cc(C(=O)C(=O)N3CCN(C(=O)c4cccc(C)n4)CC3)c12 [Example 201]	< 1000	–
COc1cnc(-n2nccc2N)c2[nH]cc(C(=O)C(=O)N3CCN(C(=O)c4ccccc4)[C@H](C)C3)c12 [Example 254, (R)-1-benzoyl-2-methyl-4-[(4-methoxy-7-(5-amino-pyrazol-1-yl)-6-azaindol-3-yl)-oxoacetyl]piperazine]	–	EC50 [2]: < 1000 nM
C[C@@H]1CN(C(=O)c2ccccc2)CCN1C(=O)C(=O)c1c[nH]c2c(-c3cccnc3)nccc12 [Example 18, 1-benzoyl-3-(R)-methyl-4-[(7-(pyridin-3-yl)-6-azaindol-3-yl)-oxoacetyl]piperazine]	< 1000	–
COc1cnc(-c2ccccn2)c2[nH]cc(C(=O)C(=O)N3CCN(C(=O)c4ccccc4)CC3)c12 [Example 36, 1-benzoyl-4-[(4-methoxy-7-(pyridin-2-yl)-6-azaindol-3-yl)-oxoacetyl]piperazine]	< 1000	–
COc1cnc(-c2cnc(N(C)C)cn2)c2[nH]cc(C(=O)C(=O)N3CCN(C(=O)c4ccccn4)CC3)c12 [Example 103, 1-picolinoyl-4-[(4-methoxy-7-(2-dimethylamino-pyrazin-5-yl)-6-azaindol-3-yl)-oxoacetyl]piperazine]	< 1000	–
COc1cnc(-n2ccc(S(=O)(=O)c3ccc(C)cc3)n2)c2[nH]cc(C(=O)C(=O)N3CCN(C(=O)c4ccccc4)CC3)c12 [Example 286, 1-benzoyl-4-[(4-methoxy-7-(3-(toluene-4-sulfonyl)-pyrazol-1-yl)-6-azaindol-3-yl)-oxoacetyl]piperazine]	< 1000	–
COc1cnc(-c2cnccn2)c2[nH]cc(C(=O)C(=O)N3CCN(C(=O)c4cccnc4)[C@H](C)C3)c12 [Example 270]	–	EC50 [2]: < 1000 nM
C[C@@H]1CN(C(=O)c2ccccc2)CCN1C(=O)C(=O)c1c[nH]c2c(-c3ccc(C(=O)O)cc3)nccc12 [Example 164]	< 1000	–
COc1cnc(-c2cnc(C(N)=O)cn2)c2[nH]cc(C(=O)C(=O)N3CCN(C(=O)c4ccccc4)CC3)c12 [Example 55, 1-benzoyl-4-[(4-methoxy-7-(2-aminocarbonyl-pyrazin-5-yl)-6-azaindol-3-yl)-oxoacetyl]piperazine]	< 1000	–
COc1cnc(-n2ccc(-c3ccc(C(F)(F)F)cc3)n2)c2[nH]cc(C(=O)C(=O)N3CCN(C(=O)c4ccccc4)CC3)c12 [Example 288, 1-benzoyl-4-[(4-methoxy-7-(3-(4-trifluoromethyl-phenyl)-pyrazol-1-yl)-6-azaindol-3-yl)-oxoacetyl]piperazine]	< 1000	–
COC(=O)c1ccc(-c2ccn(-c3ncc(OC)c4c(C(=O)C(=O)N5CCN(C(=O)c6ccccc6)CC5)c[nH]c34)n2)cc1 [Example 293, 1-benzoyl-4-[(4-methoxy-7-(3-(4-methoxycarbonylphenyl)-pyrazol-1-yl)-6-azaindol-3-yl)-oxoacetyl]piperazine]	< 1000	–
COc1cnc(-c2cnc(N3CCCC3=O)s2)c2[nH]cc(C(=O)C(=O)N3CCN(C(=O)c4ccccc4)CC3)c12 [Example 116, 1-benzoyl-4-[(4-methoxy-7-((2-pyrrolidinon-1-yl)-thiazol-5-yl)-6-azaindol-3-yl)-oxoacetyl]piperazine]	< 1000	–
O=C(O)c1ccc(-c2nccc3c(C(=O)C(=O)N4CCN(C(=O)c5ccccc5)CC4)c[nH]c23)cc1 [Example 4, 1-benzoyl-4-[(7-(4-carboxy-phenyl)-6-azaindol-3-yl)-oxoacetyl]piperazine]	< 1000	–
COc1cnc(-c2cc3ccccc3o2)c2[nH]cc(C(=O)C(=O)N3CCN(C(=O)c4ccccc4)CC3)c12 [Example 98]	< 1000	–
O=C(C(=O)N1CCN(C(=O)c2ccc(Br)o2)CC1)c1c[nH]c2c(-c3ncon3)ncc(F)c12 [Example 167]	< 1000	–
COc1cnc(-c2cnc(O)cn2)c2[nH]cc(C(=O)C(=O)N3CCN(C(=O)c4ccccc4)[C@H](C)C3)c12 [Example 271]	–	EC50 [2]: < 1000 nM
CCN(CC)CCN(C)c1cnc(-c2ncc(OC)c3c(C(=O)C(=O)N4CCN(C(=O)c5ccccc5)CC4)c[nH]c23)cn1 [Example 175, 1-benzoyl-4-[(4-methoxy-7-(2-(N-diethylaminoethyl-N-methyl)aminopyrazin-S-yl)-6-azaindol-3-yl)-oxoacetyl]piperazine]	< 1000	–
CCC(C)c1ncc(-c2ncc(OC)c3c(C(=O)C(=O)N4CCN(C(=O)c5ccccc5)CC4)c[nH]c23)s1 (centres unmarked) [Example 91, 1-benzoyl-4-[(4-methoxy-7-(2-(2-butyl)-thiazol-5-yl)-6-azaindol-3-yl)-oxoacetyl]piperazine]	< 1000	–
COc1cnc(-c2cnc(N3CCCC3)cn2)c2[nH]cc(C(=O)C(=O)N3CCN(C(=O)c4ccccn4)CC3)c12 [Example 185]	< 1000	–
COc1cnc(-c2cnc(N3CCOCC3)cn2)c2[nH]cc(C(=O)C(=O)N3CCN(C(=O)c4ccccc4)CC3)c12 [Example 178, 1-benzoyl-4-[(4-methoxy-7-(2-(4-morpholinyl)-pyrazin-5-yl)-6-azaindol-3-yl)-oxoacetyl]piperazine]	< 1000	–
CON(C)C(=O)c1ccnc2c(C(=O)C(=O)N3CCN(C(=O)c4ccccc4)C[C@H]3C)c[nH]c12 [Example 57]	–	EC50 (Human immunodeficiency virus 1, HeLa-CD4/CCR5, read-out: EC50 Group from Table 1, Table 4, HeLa CD4 CCR5 cells, single-round luciferase reporter virus): < 1000 nM
COc1cnc(-c2cnccn2)c2[nH]cc(C(=O)C(=O)N3CCN(C(=O)c4csnn4)CC3)c12 [Example 197]	< 1000	–
COc1cnc(-c2cnccn2)c2[nH]cc(C(=O)C(=O)N3CCN(C(=O)c4cnccn4)CC3)c12 [Example 195]	< 1000	–
C[C@@H]1CN(C(=O)c2ccccc2)CCN1C(=O)C(=O)c1c[nH]c2c(-c3cccc(NC(=O)C4OC4C(=O)O)n3)nccc12 (stereo in doubt) [Example 297, 3-(6-{3-[2-(4-Benzoyl-2-methyl-piperazin-1-yl)-2-oxo-acetyl]-1H-pyrrolo[2,3-c]pyridin-7-yl}-pyridin-2-ylcarbamoyl)-oxirane-2-carboxylic acid]	< 1000	–
COc1cnc(-n2ccc(C(C)(C)O)n2)c2[nH]cc(C(=O)C(=O)N3CCN(C(=O)c4ccccc4)CC3)c12 [Example 247, 1-benzoyl-4-[(4-methoxy-7-(3-(1-hydroxyl-1-methylethyl)-pyrazol-1-yl)-6-azaindol-3-yl)-oxoacetyl]piperazine]	< 1000	–
COc1cnc(-c2ncccn2)c2[nH]cc(C(=O)C(=O)N3CCN(C(=O)c4ccccc4)CC3)c12 [Example 49, 1-benzoyl-4-[(4-methoxy-7-(pdin-2-yl)-6-azaindol-3-yl)-oxoacetyl]piperazine]	< 1000	–
